Experimental data taken from patent US5443986A, “Enzymatic analysis using substrates that yield fluorescent precipitates” (Molecular Probes, Inc., priority 1993, dated 1995).

Columns and labels:
[1] = target: alkaline phosphatase (Bos taurus, UniProt P19111); test: Detection of enzyme on non-denaturing gels after electrophoresis; type: biochemical
Method: 1 ). Detecting enzymes on native gels using precipitating substrates. Gel electrophoresis is a common method for identifying proteins in fluids and tissue homogenates. In native gel electrophoresis, the proteins retain their activity during the process of separation and thus can hypothetically be identified by activity assays. By incubating the native gel with various precipitating substrates specific for the analyte enzyme, one can identify whether the enzyme is present in the loaded sample. These methods are used for investigating the expression of both endogenous enzymes and enzyme-fusion proteins and for the detection of the enzyme in samples suspected of containing the enzyme. A protocol commonly used in these experiments is as follows:
1. The enzyme-containing sample is mixed with the sample buffer (0.075M TRIS-HCl in 50% glycerol, pH 6.8) to a concentration that is appropriate for loading the enzyme. The sample is loaded onto a 4-20% gradient acrylamide gel. The gel is run at 30 mA for approximately 30 minutes.
2. The gel is incubated in a buffer that is optimal for the enzyme being detected and that contains 1 mM of the substrate. For alkaline phosphatase the buffer used is 100 mM MOPS, 50 mM NaCl, 1 mM MgCl2, 0.1 mM ZnCl2, pH 7.5. The appearance of fluorescent bands is monitored using a hand-held ultraviolet lamp.
2). Comparing the sensitivity of enzyme detection using precipitating substrates versus standard Coomassie Blue detection. Decreasing amounts of alkaline phosphatase are loaded into the lanes of two gels. The amount of alkaline phosphatase loaded into each lane varies from […]. After electrophoresis, one gel is developed for visualization using standard Coomassie Blue-staining procedures; the other by incubation with 1 mM 8e as described above. The minimum detectable quantity of alkaline phosphatase using standard Coomassie Blue-staining methods is 1 μg. After incubation with 8e for 30 minutes, 1 ng of alkaline phosphatase is clearly visible using a handheld UV-lamp. After approximately 20 hours incubation, 0.25 ng of alkaline phosphatase can be visibly detected without any signal enhancement. These experiments indicate that incubation with the precipitating substrate provides a method for enzyme detection that is 4000 times more sensitive than standard Coomassie Blue-staining methods. […] Multiple proteins or extracts can be run in a single lane with only the enzyme specific for the synthetic substrate being detected by the staining.

[2] = test system: HEp-2 cells; test: Enzyme-mediated immunohistochemical detection (SLE kit) on fixed HEp-2 cells; type: cell-based, human; settings: 30 minute incubation, 100 mM MOPS pH 7.5, biotinylated alkaline phosphatase
Method: 1 ). Cells and Detection Kit. […] The kit includes slides containing wells of fixed HEp-2 cells (human epithelial cells) and a positive control consisting of anti-DNA antibodies isolated from humans with the disease. Normally, the slides are incubated with sera from patients and then probed with fluorescein-conjugated anti-human antibodies. Using this method, the nuclei of those cells that have been incubated with SLE-positive sera appear to have typical morphology that is identified by their green fluorescence using standard fluorescence microscopy whereas the negative controls have no fluorescence.
2). Sample Preparation. A four-step incubation protocol is used to prepare the slides. All reagents are diluted in 1% bovine serum albumin (BSA) in TRIS-buffered saline, pH 7.5 (TBS; 100 mM NaCl, 100 mM TRIS). Each incubation is 1/2 hour. Slides are washed three times with TBS between incubations. A typical procedure consists of the following steps:
1. The wells are incubated with either SLE-positive or -negative human sera (provided in the kit).
2. The wells are incubated with biotinylated goat anti-human ([…]).
3. The wells are incubated with streptavidin (50 μg/mL), a reagent that has four binding sites for biotin. Excess binding sites are available for binding the next reagent.
4. The wells are incubated with a biotinylated enzyme that will remove BLOCK from the subject substrates. […]

Sequence of alkaline phosphatase (P19111 20-506 limits assumed): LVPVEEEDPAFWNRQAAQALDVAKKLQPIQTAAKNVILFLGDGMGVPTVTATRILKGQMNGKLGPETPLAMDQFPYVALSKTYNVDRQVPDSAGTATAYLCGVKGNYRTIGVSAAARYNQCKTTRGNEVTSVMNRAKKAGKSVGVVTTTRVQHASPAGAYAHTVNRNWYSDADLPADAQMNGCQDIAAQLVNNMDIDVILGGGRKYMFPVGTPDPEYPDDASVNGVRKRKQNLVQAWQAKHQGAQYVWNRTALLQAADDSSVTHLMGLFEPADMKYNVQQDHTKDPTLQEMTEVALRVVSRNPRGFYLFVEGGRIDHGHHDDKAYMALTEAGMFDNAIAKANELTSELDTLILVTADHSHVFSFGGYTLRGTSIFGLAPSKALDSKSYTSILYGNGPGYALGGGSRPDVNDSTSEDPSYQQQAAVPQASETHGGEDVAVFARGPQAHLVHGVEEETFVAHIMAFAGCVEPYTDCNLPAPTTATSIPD

## O=c1[nH]c(-c2cc(Cl)ccc2OP(=O)(O)O)nc2ccc(Cl)cc12 [8e, Ammonium 2-(5'-chloro-2'-phosphoryloxyphenyl)-6-chloro-4-(3H)-quinazolinone]
[1]; 1 mM substrate, 30 minutes incubation, handheld UV-lamp
  quantity of alkaline phosphatase clearly visible on the gel: 1 ng
[1]; 1 mM substrate, approximately 20 hours incubation, no signal enhancement
  quantity of alkaline phosphatase visibly detected on the gel: 0.25 ng
[1]; enzyme detection on gel
  sensitivity relative to standard Coomassie Blue-staining methods: 4000 times
[1]; lanes loaded with 2-μg bovine serum albumin or 2-μg β-galactosidase
  staining of negative control lanes: does not stain lanes
[2]
  staining of cells incubated with SLE-positive sera: brightly fluorescent nuclei
  staining of wells incubated with negative sera: No signal is detected
